Like-named read-outs stand apart in the source and are kept apart here.
Tests used:
TIMP-1 = assay: Plasma biomarker TIMP-1; format: in vivo, human; conditions: for TIMP1 raw data, Mean (SD) / TIMP-1 least square means % baseline±SEM: IPF patients
Description: (§1) All patients, investigators, sites and study sponsor personnel were blinded to the study group assignments throughout the study. Patients underwent study-specific assessments on days 2, 3, 7, 14 and 15, and a post-study assessment was carried out 26–30 days after the last day of the study period. Assessments included vital signs (supine blood pressure, pulse, oxygen saturation, oral temperature and respiratory rate), spirometry, 12-lead ECG, physical examination, laboratory safety screen (haematology, biochemistry, urinalysis and urinary drugs of abuse screen) and blood sampling for PK measurements. All adverse events and concomitant medications were recorded from the time of the screening visit until the post-study follow-up visit. BAL was performed at day −1 (24 h before the first dose) and at day 14 (2 h after the last dose). The BAL procedure was performed as per international guidelines. Briefly, 240 mL of 0.9% saline at room temperature was instilled in 40 mL aliquots into the right middle lobe and aspirated by suction after each aliquot.
(§2) BAL cells were separated from fluid by centrifugation, and cells were collected, stained with antibodies (supplementary material) and then fixed before analysis using a LSR Fortessa flow cytometer (Becton Dickinson, Franklin Lakes, NJ, USA). Data were analysed using FlowJo software (Tree Star, Ashland, OR, USA). Macrophages were identified as having high side scatter properties and human leukocyte antigen-DR positivity. Gal-3 expression (mean fluorescence intensity) was determined from the macrophage gate (supplementary figures S1 and S2). […] Samples were analysed by magnetic Luminex assay (R&D Systems, Minneapolis, MN, USA) or ELISA.
(§3) For part 2 of the study, placebos were combined from the three dose-specific cohorts into a pooled control group (n=9). For alveolar macrophage Gal-3 expression and the plasma biomarkers, ANCOVA was performed for percentage of baseline ((day 14/day 1)×100). The ANCOVA model included effects for treatment group and baseline (day 1) value. […] An additional analysis including dose as a continuous covariate was also performed. The Pearson correlation coefficient (r) and associated p-value were calculated for percentage of baseline and day 14 values between plasma biomarkers and alveolar macrophage Gal-3 expression. […] The analysis is exploratory and there was no pre-planned adjustment for multiple testing; the study was not powered for this. Alveolar macrophage Gal-3 expression was considered the primary exploratory analysis with the pre-selected biomarkers secondary. A Bonferroni correction for multiple testing of the secondary end-points comparing the 10 mg group with placebo gives a critical value of 0.0063. Data are presented as the difference in least square means with 95% confidence interval and p-value unless otherwise stated. All analyses were performed using SAS version 9.4 (SAS Institute, Cary, NC, USA). […]

IL-1ra = assay: Plasma biomarker IL-1ra; format: in vivo, human; conditions: for IL-1ra raw data, Mean (SD) / IL-1ra least square means % baseline±SEM: IPF patients
Description: as §1, §2, §3

MMP-7 = assay: Plasma biomarker MMP-7; format: in vivo, human; conditions: for MMP-7 raw data, Mean (SD) / MMP-7 least square means % baseline±SEM: IPF patients
Description: as §1, §2, §3

Gal-3 = Gal-3 (Homo sapiens, UniProt P17931); conditions: for Galectin-3 (BAL) raw data, Mean (SD): Day 14
Gal-3, sequence (P17931 whole entry): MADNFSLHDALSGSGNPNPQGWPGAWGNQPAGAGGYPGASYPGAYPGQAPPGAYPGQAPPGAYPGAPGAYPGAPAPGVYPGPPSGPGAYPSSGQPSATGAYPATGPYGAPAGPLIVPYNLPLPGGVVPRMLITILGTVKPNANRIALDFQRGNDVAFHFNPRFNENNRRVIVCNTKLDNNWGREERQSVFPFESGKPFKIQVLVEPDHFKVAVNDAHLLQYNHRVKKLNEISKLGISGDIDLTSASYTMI
Description: as §1, §2
For part 2 of the study, placebos were combined from the three dose-specific cohorts into a pooled control group (n=9). For alveolar macrophage Gal-3 expression and the plasma biomarkers, ANCOVA was performed for percentage of baseline ((day 14/day 1)×100). The ANCOVA model included effects for treatment group and baseline (day 1) value. […] An additional analysis including dose as a continuous covariate was also performed. The Pearson correlation coefficient (r) and associated p-value were calculated for percentage of baseline and day 14 values between plasma biomarkers and alveolar macrophage Gal-3 expression. […] The analysis is exploratory and there was no pre-planned adjustment for multiple testing; the study was not powered for this. Alveolar macrophage Gal-3 expression was considered the primary exploratory analysis with the pre-selected biomarkers secondary. A Bonferroni correction for multiple testing of the secondary end-points comparing the 10 mg group with placebo gives a critical value of 0.0063. Data are presented as the difference in least square means with 95% confidence interval and p-value unless otherwise stated. All analyses were performed using SAS version 9.4 (SAS Institute, Cary, NC, USA).
BAL cells were separated from fluid by centrifugation and BAL cells were collected, stained with antibodies then fixed before analysis using a LSRFortessa™ flow cytometer (Becton Dickinson, NJ, USA). Data were analysed using FlowJo software (Becton Dickinson, NJ, USA). After exclusion of doublets and debris a sequential gating strategy was employed to identify cell populations based on surface marker expression. The antibodies used were Gal-3-FITC, CD19-PE, HLA-DR PEcy7, CD14-APC, CD16-pacific-blue, CD11b perCPcy5.5, […]
Biolegend except Gal-3-FITC which was from Cedarlane. Macrophages were identified as having high side scatter properties and HLA-DR positivity. Gal-3 expression (mean fluorescence intensity, MFI) was determined from the macrophage gate. Macrophage subsets were classed as M1, M2a and M2c based on the relative expression of CD206 and CD163 as […]
ve gate the relative % of neutrophils (CD19-/CD16+), B cells (CD19+), natural killer (NK) cells (CD56+), NK T-cells (NKT) cells (CD56+/CD3+), CD4 T cells (CD3+/CD4+) and CD8 T cells

IL-13 = assay: Plasma biomarker IL-13; format: in vivo, human; conditions: for IL-13 raw data, Mean (SD) / IL-13 least square means % baseline±SEM: IPF patients
Description: as §1, §2, §3

Osteopontin = assay: Plasma biomarker osteopontin; format: in vivo, human; conditions: for Osteopontin raw data, Mean (SD) / Osteopontin least square means % baseline±SEM: IPF patients
Description: as §1, §2, §3

MMP-1 = assay: Plasma biomarker MMP-1; format: in vivo, human; conditions: for MMP-1 raw data, Mean (SD) / MMP-1 least square means % baseline±SEM: IPF patients
Description: as §1, §2, §3

## OC[C@H]1O[C@@H](S[C@@H]2O[C@H](CO)[C@H](O)[C@H](n3cc(-c4cccc(F)c4)nn3)[C@H]2O)[C@H](O)[C@@H](n2cc(-c3cccc(F)c3)nn2)[C@H]1O [TD139]
TIMP-1; 10 mg vs placebo, ANCOVA
  TIMP-1 difference in least square means % baseline (95% CI): 3.8 (−10.6–18.2) % baseline
TIMP-1; Day 14, 0.3 mg
  TIMP1 raw data, Mean (SD): 38084.3 (4735.81) pg/ml
TIMP-1; Day 14, 3 mg
  TIMP1 raw data, Mean (SD): 49880.6 (1032.27) pg/ml
TIMP-1; Day 14, 10 mg
  TIMP1 raw data, Mean (SD): 45458.7 (11908.04) pg/ml
TIMP-1; day 14, 0.3 mg once daily
  TIMP-1 least square means % baseline±SEM: 88.6±5.8 % baseline
TIMP-1; day 14, 3 mg once daily
  TIMP-1 least square means % baseline±SEM: 107.0±6.0 % baseline
TIMP-1; day 14, 10 mg once daily
  TIMP-1 least square means % baseline±SEM: 106.0±5.5 % baseline
IL-1ra; 10 mg vs placebo, ANCOVA
  IL-1ra difference in least square means % baseline (95% CI): 6.0 (−47.5–59.4) % baseline
IL-1ra; Day 14, 0.3 mg
  IL-1ra raw data, Mean (SD): 548.3 (279.69) pg/ml
IL-1ra; Day 14, 3 mg
  IL-1ra raw data, Mean (SD): 709.8 (338.05) pg/ml
IL-1ra; Day 14, 10 mg
  IL-1ra raw data, Mean (SD): 1992.9 (2627.15) pg/ml
IL-1ra; day 14, 0.3 mg once daily
  IL-1ra least square means % baseline±SEM: 93.2±20.3 % baseline
IL-1ra; day 14, 3 mg once daily
  IL-1ra least square means % baseline±SEM: 98.7±20.2 % baseline
IL-1ra; day 14, 10 mg once daily
  IL-1ra least square means % baseline±SEM: 98.0±20.8 % baseline
MMP-7; 10 mg vs placebo, ANCOVA
  MMP-7 difference in least square means % baseline (95% CI): −82.0 (−237.9–73.9) % baseline
MMP-7; Day 14, 0.3 mg
  MMP-7 raw data, Mean (SD): 447.6 (205.21) pg/ml
MMP-7; Day 14, 3 mg
  MMP-7 raw data, Mean (SD): 1849.2 (2244.12) pg/ml
MMP-7; Day 14, 10 mg
  MMP-7 raw data, Mean (SD): 1130.6 (939.62) pg/ml
MMP-7; day 14, 0.3 mg once daily
  MMP-7 least square means % baseline±SEM: 79.3±59.2 % baseline
MMP-7; day 14, 3 mg once daily
  MMP-7 least square means % baseline±SEM: 82.3±58.4 % baseline
MMP-7; day 14, 10 mg once daily
  MMP-7 least square means % baseline±SEM: 84.4±58.7 % baseline
Gal-3; 3 mg dose group
  Gal-3 expression on BAL macrophages, percentage of baseline at day 14, difference compared with placebo: −38.66%
Gal-3; 10 mg dose group
  Gal-3 expression on BAL macrophages, percentage of baseline at day 14, difference compared with placebo: −44.63%
Gal-3; BAL macrophages, 10 mg vs placebo
  Gal-3 (BAL) Bayesian probability of effect: 99.14
Gal-3; BAL macrophages, 10 mg vs placebo, ANCOVA
  Gal-3 (BAL) difference in least square means % baseline (95% CI): −44.6 (−80.4– −8.8) % baseline
Gal-3; IPF patients, BAL macrophages, 0.3 mg
  Galectin-3 (BAL) raw data, Mean (SD): 7794.8 (2990.48) pg/ml
Gal-3; IPF patients, BAL macrophages, 3 mg
  Galectin-3 (BAL) raw data, Mean (SD): 8058.6 (3001.05) pg/ml
Gal-3; IPF patients, BAL macrophages, 10 mg
  Galectin-3 (BAL) raw data, Mean (SD): 5237 (2033.86) pg/ml
Gal-3; IPF patients, BAL macrophages, day 14, 0.3 mg once daily
  Gal-3 (BAL) least square means % baseline±SEM: 67.9±12.1 % baseline
Gal-3; IPF patients, BAL macrophages, day 14, 3 mg once daily
  Gal-3 (BAL) least square means % baseline±SEM: 43.0±11.7 % baseline
Gal-3; IPF patients, BAL macrophages, day 14, 10 mg once daily
  Gal-3 (BAL) least square means % baseline±SEM: 37.1±13.5 % baseline
Gal-3; IPF patients, BAL macrophages, percentage of baseline
  Galectin-3 (BAL), analysis including dose as a continuous covariate: Estimate: -4.19
Gal-3; IPF patients, day 14
  correlation between TD139 in AMs and percentage of baseline in surface macrophage Gal-3 (r): −0.63 (95% CI −0.86– −0.18)
Gal-3; fitted maximum effect model vs macrophage TD139 concentration, (95% CI)
  Emax (AM surface Gal-3 percentage of baseline): 4.5 (−44.0–35.9)
IL-13; 10 mg vs placebo, ANCOVA
  IL-13 difference in least square means % baseline (95% CI): −7.6 (−30.4–15.2) % baseline
IL-13; Day 14, 0.3 mg
  IL-13 raw data, Mean (SD): 1219.4 (155.7) pg/ml
IL-13; Day 14, 3 mg
  IL-13 raw data, Mean (SD): 1476.6 (140.99) pg/ml
IL-13; Day 14, 10 mg
  IL-13 raw data, Mean (SD): 1358.8 (149.34) pg/ml
IL-13; day 14, 0.3 mg once daily
  IL-13 least square means % baseline±SEM: 87.4±8.8 % baseline
IL-13; day 14, 3 mg once daily
  IL-13 least square means % baseline±SEM: 100.4±9.5 % baseline
IL-13; day 14, 10 mg once daily
  IL-13 least square means % baseline±SEM: 97.6±8.8 % baseline
Osteopontin; 10 mg vs placebo, ANCOVA
  Osteopontin difference in least square means % baseline (95% CI): −26.8 (−88.0–34.3) % baseline
Osteopontin; Day 14, 0.3 mg
  Osteopontin raw data, Mean (SD): 37756 (20451.51) pg/ml
Osteopontin; Day 14, 3 mg
  Osteopontin raw data, Mean (SD): 31032.4 (13230.48) pg/ml
Osteopontin; Day 14, 10 mg
  Osteopontin raw data, Mean (SD): 48630.5 (37737.51) pg/ml
Osteopontin; day 14, 0.3 mg once daily
  Osteopontin least square means % baseline±SEM: 106.2±23.9 % baseline
Osteopontin; day 14, 3 mg once daily
  Osteopontin least square means % baseline±SEM: 84±23.7 % baseline
Osteopontin; day 14, 10 mg once daily
  Osteopontin least square means % baseline±SEM: 91.3±23.4 % baseline
MMP-1; 10 mg vs placebo, ANCOVA
  MMP-1 difference in least square means % baseline (95% CI): −102.1 (−251.4–47.3) % baseline
MMP-1; Day 14, 0.3 mg
  MMP-1 raw data, Mean (SD): 535.1 (449.22) pg/ml
MMP-1; Day 14, 3 mg
  MMP-1 raw data, Mean (SD): 1494.4 (647.67) pg/ml
MMP-1; Day 14, 10 mg
  MMP-1 raw data, Mean (SD): 537.5 (257.55) pg/ml
MMP-1; day 14, 0.3 mg once daily
  MMP-1 least square means % baseline±SEM: 67.3±56.3 % baseline
MMP-1; day 14, 3 mg once daily
  MMP-1 least square means % baseline±SEM: 107.1±59.1 % baseline
MMP-1; day 14, 10 mg once daily
  MMP-1 least square means % baseline±SEM: 62.1±58.1 % baseline
